# Results reported in patent US10624944B2, “Anti-inflammatory peptides for treating non-alcoholic steatohepatitis (NASH)” (Creative Bio-Peptides Inc., priority 2017, dated 2020).
# Read-outs that look alike come from different tables or passages of the source. Square brackets hold non-standard residues; d marks the D form. Ends that are not written are not given here.
# Experiments:
# [1] = system: high fat diet mouse model of NAFLD; details: cited from earlier work
# CCR5 = CCR5 (Homo sapiens, UniProt P51681); details: 30 min pretreatment; CCL4 50 ng/mL for 90 min; FIG. 2; cited from earlier work
# [2] = system: human monocyte derived immature dendritic cells (iDCs)
# Excerpt: In liver, TLR4 is expressed by all parenchymal and non-parenchymal cell types, and contributes to tissue damage caused by a variety of etiologies. TLR4 signaling occurs in hepatic stellate cells (HSCs), the major fibrogenic cell type in injured liver, and mediates an inflammatory phenotype leading to fibrogenesis.
# [3] = system: chemokines, chemokine receptors and cytokines; details: Rat, oral gavage 0.05-1 mg/kg for 7 days, nerve injured
# Excerpt: The specific experimental details are provided in Padi, 2012 (7).
# TLR4/MyD88 [4] = details: iDCs treated at 10^-12 M for 30 min, then LPS 100 ng/ml, analyzed after 48 hrs
# Description: To determine whether all-D-TTNYT (SEQ ID NO:1) blocks maturation of antigen-presenting dendritic cells, human PBMC's were isolated from peripheral blood by Ficoll-Paque centrifugation and then monocytes were isolated by negative selection using immunobeads (Miltenyi). Human monocyte derived immature dendritic cells (iDCs) were then generated by treating monocytes with GM-CSF/IL4.
# After 30 min LPS (100 ng/ml) was added to the cells and cells were analyzed after 48 hrs. for surface maturation markers using fluorescent labeled antibodies by flow cytometry.
# CCR2 [5] = molecular target: T1, CCR2 (Homo sapiens, UniProt P41597); details: 30 min pretreatment; CCL2 50 ng/mL for 90 min; FIG. 2; cited from earlier work
# [6] = system: inflammatory cytokine levels; details: Hu; cited from earlier work
# TLR4/MyD88 [7] = details: Rat; cited from earlier work
# CCR2 [8] = molecular target: T1, CCR2; assay: CCL2 (MCP-1)-elicited chemotaxis of human monocytes; type: cell-based; set-up: endogenous in cells; host or cells: human monocytes; details: FIG. 3; methods similar to FIG. 2; low concentration
# Description: Monocytes were treated with the indicated doses of RAP-103 for 30 min before chemotaxis against human CCL2 (MCP-1) or CCL4 (MIP-1β) (both 50 ng/mL) for 90 min. Data (chemotactic index) are presented as mean±SEM. The chemotactic index for MCP-1 without RAP-103 was 2.5-3.5 times over control, whereas for MIP-1 ? without RAP-103, it was approximately 2 times over control. Data are presented as mean±SEM. (*P<0.05, **P<0.01 vs RAP-103 untreated). Data are from [Padi, 2012, FIG. 1]. […] Dual-chemokine CCR2/CCR5 receptor antagonists may have added therapeutic value by blocking multiple inflammatory pathways.
# Methods are similar to those in FIG. 2.
# response to bradykinin = details: amounts up to 50,000 times the standard challenge of bradykinin; cited from earlier work
# [9] = listed as all-D-pentapeptide TTNYT
# T1 sequence (P41597 whole entry): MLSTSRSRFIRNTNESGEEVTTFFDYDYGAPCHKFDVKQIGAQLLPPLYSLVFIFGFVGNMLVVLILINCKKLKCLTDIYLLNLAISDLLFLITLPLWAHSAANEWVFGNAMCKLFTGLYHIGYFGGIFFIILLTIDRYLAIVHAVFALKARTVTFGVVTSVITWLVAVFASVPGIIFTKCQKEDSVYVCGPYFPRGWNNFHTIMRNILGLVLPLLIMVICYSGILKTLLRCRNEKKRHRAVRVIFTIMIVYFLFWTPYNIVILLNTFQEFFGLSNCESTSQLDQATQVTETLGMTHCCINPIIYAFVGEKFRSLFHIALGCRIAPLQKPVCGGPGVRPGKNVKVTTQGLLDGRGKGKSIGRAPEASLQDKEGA
# CCR5, sequence (P51681 whole entry): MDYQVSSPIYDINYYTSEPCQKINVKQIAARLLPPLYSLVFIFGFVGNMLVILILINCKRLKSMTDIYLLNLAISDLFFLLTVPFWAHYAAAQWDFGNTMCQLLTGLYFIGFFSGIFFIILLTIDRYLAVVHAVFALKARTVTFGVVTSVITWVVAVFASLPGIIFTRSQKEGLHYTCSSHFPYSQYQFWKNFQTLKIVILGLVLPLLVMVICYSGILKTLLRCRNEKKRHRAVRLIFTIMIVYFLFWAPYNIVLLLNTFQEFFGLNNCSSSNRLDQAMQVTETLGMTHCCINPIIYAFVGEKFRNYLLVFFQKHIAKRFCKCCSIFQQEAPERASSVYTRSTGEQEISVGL
substance,measurement,setting,value
Maraviroc,CCL5/RANTES expression,[1],significantly lower
same,hepatic steatosis,[1],ameliorated hepatic steatosis
all-D-TTNYT,CCL4 (MIP-1β) human monocyte chemotaxis (chemotactic index),CCR5,dual-antagonist
same,DC maturation of the four markers caused by LL37,[2],no effect
same,Change of CCR2,[3],decrease
same,Change of CCR5,[3],decrease
same,Change of IL-6,[3],decrease
same,Change of IL-β,[3],decrease
same,Change of MCP-1 (CCL2),[3],decrease
same,Change of MIP-1α (CCL3),[3],decrease
same,Change of TNFα,[3],decrease
same,Change of CCR2,[3]; [9],lowering expression
same,Change of CCR5,[3]; [9],lowering expression
same,Change of IL-β,[3]; [9],lowering expression
same,Change of MCP-1 (CCL2),[3]; [9],lowering expression
same,Change of MIP-1α (CCL3),[3]; [9],lowering expression
same,Change of TNFα,[3]; [9],lowering expression
same,"expression of maturation markers CD86, HLA-DR, CD58 and ICAM1 induced by TLR4/MyD88 activation (LPS)",TLR4/MyD88 [4],reduces expression of all the maturation markers
same,CCL2 (MCP-1) human monocyte chemotaxis (chemotactic index),CCR2 [5],dual-antagonist
Dala1-peptide T-amide [DAPTA],Change of ICAM-1,[6],decrease
same,Change of IL-1,[6],decrease
same,Change of IL-6,[6],decrease
same,Change of IL-8,[6],decrease
same,Change of IL-23,[6],decrease
same,Change of NFkB,[6],decrease
same,Change of STAT3,[6],decrease
same,Change of TNFα,[6],decrease
same,Change of TLR4/MyD88,TLR4/MyD88 [7],decrease
all-D-TTSYT ([dT][dT][dS][dY][dT]) [all-D-amino acid pentapeptide TTSYT],CCL2 human monocyte chemotaxis,CCR2 [8],antagonists
all-D-NTSYR ([dN][dT][dS][dY][dR]) [all-D-amino acid pentapeptide NTSYR],CCL2 human monocyte chemotaxis,CCR2 [8],antagonists
all-D-bradykinin,inhibition of the response to bradykinin or bradykinin-like effect,response to bradykinin,"neither any inhibition of the response to bradykinin, or any bradykinin-like effect"
all-D-SSTYR ([dS][dS][dT][dY][dR]) [all-D-amino acid pentapeptide SSTYR],CCL2 human monocyte chemotaxis,CCR2 [8],antagonists
